How the values were obtained:
Kunming mice = experiment: Sedation: spontaneous activities recorded with alternating current tube; assay type: in vivo
Description: Kunming mice were used, with a male-female ratio of 50-50%. […] After 30 minutes, acetic acid (0.7%, […] i.p.) was injected and the number of writhes was observed during a 5-minute period after acetic acid administration. The inhibition ratio of the writhing threshold was calculated. The alternating current tube is used to record the spontaneous activities for measuring sedation.

rat = experiment: Rat tail flick model (focused radiant heat); assay type: in vivo
Description: A 8.75 mm-projecting lamp (12 v, 50 w) was used to give out focused radiant heat. The terminal 3 cm of the tail is exposed to the heat. The intensity of the focused radiant heat is regulated by a transformer to ensure that the time required to elicit a tail flick response is within 3-5 seconds. The rat's pain threshold is pre-tested for 2-3 times; and only animals with stable reactions were used in the pharmaceutical test. The test substance is taken orally 20 mg/kg. The number of rats whose increase in time for eliciting a tail flick response is by 100% or more at the peak of the drug action (30-45 minutes after administration) is used to calculate analgesic effect.
Two species of animals (mice and rats) and four types of pain testing models (i.p. 0.7% acetic acid, s.c. 5% formalin, hot plate 55° C., focused radiant heat) were used.

voltage-gating channel = experiment: Electrophysiology of hippocampus's pyramidal cell: voltage-gating channel; assay type: cell-based
NMDA receptor = experiment: Binding test with NMDA receptor; details: 0.1 μM, 1 μM and 10 μM
rats [1] = experiment: Defervescence in rats given Brewers' yeast; assay type: in vivo; details: p.o., 60 mg/kg, Brewers' yeast s.c. 7%
rats [2] = experiment: Precipitated withdrawal test in rats; assay type: in vivo; details: for Abstinence syndrome (IV ± SD): 14 days, Narcan i.p. 4 mg/kg
Description: 48 rats were divided into 4 groups (12 for each group, ? fifty-fifty). Morphines IV-12-1 (75 mg/Kg), IV-12-2 (100 mg/Kg) and saline, was administered respectively using progressive dose increase for 14 days and 3 times per day. On the 15th day, Narcan is injected (i.p. 4 mg/kg) to precipitate withdrawal. The withdrawal syndrome was observed and the rats wre weighed at 30, 60 and 120 minutes after the injection respectively.

rats [3] = experiment: Spontaneous withdrawal tests (body weight); assay type: in vivo; details: for Weight after withdrawal compared with weight one day before withdrawal: IV-12-1 75 mg/kg; for Increase (%) of weight / Weight: IV-12-1 (75 mg/kg)

Nc1ccc(CN2CCN(CC(=O)c3ccccc3)CC2)cc1 [IV-12, N^1-(4-aminobenzyl)-N^4-phenacyl piperazine]
Sedation (writhing model) (Kunming mice; 20 mg/kg, Table 5 summary): 97
inhibition in vivo at 20 mg/kg (Kunming mice; Mus musculus, ip, i.p. 20 mg/Kg, spontaneous activities): 97%
Increase (tail flick) (%) (rat; 20 mg/kg, Table 5 summary): 34%
change in vivo at 20 mg/kg (rat; Rattus norvegicus, po, orally 20 mg/kg, read-out: increase (%) of tail flick time): 34%
After (s) tail flick time (rat; orally 20 mg/kg, 30-45 minutes after administration): 10.05 s
Effect on voltage-gating channel (voltage-gating channel): did not affect
Antagonism on Glu site of NMDA receptor (NMDA receptor): no antagonism
Antagonism on Gly site of NMDA receptor (NMDA receptor): no antagonism
Antagonism on ion-channel site of NMDA receptor (NMDA receptor): no antagonism
Defervescence effect (rats [1]): no defervescence effect
Percent of the lost weight (IV ± SD) (rats [2]; IV-12-1 (75 mg/Kg), 30 min after Narcan): −1.8 ± 1.4
Percent of the lost weight (IV ± SD) (rats [2]; IV-12-1 (75 mg/Kg), 60 min after Narcan): −2.6 ± 1.5
Percent of the lost weight (IV ± SD) (rats [2]; IV-12-1 (75 mg/Kg), 120 min after Narcan): −3.1 ± 1.5
Abstinence syndrome (IV ± SD) (rats [2]; IV-12-1 (75 mg/Kg)): 4.7 ± 3.9
Percent of the lost weight (IV ± SD) (rats [2]; IV-12-2 (100 mg/Kg), 30 min after Narcan): −3.1 ± 1.3
Percent of the lost weight (IV ± SD) (rats [2]; IV-12-2 (100 mg/Kg), 60 min after Narcan): −3.9 ± 1.4
Percent of the lost weight (IV ± SD) (rats [2]; IV-12-2 (100 mg/Kg), 120 min after Narcan): −4.2 ± 1.5
Abstinence syndrome (IV ± SD) (rats [2]; IV-12-2 (100 mg/Kg)): 5.3 ± 2.1
Weight after withdrawal compared with weight one day before withdrawal (rats [3]; ♀, 18 h after withdrawal): 1.01 ± 0.03
Weight after withdrawal compared with weight one day before withdrawal (rats [3]; ♀, 42 h after withdrawal): 1.02 ± 0.05
Weight after withdrawal compared with weight one day before withdrawal (rats [3]; ♀, 66 h after withdrawal): 1.03 ± 0.04
Weight after withdrawal compared with weight one day before withdrawal (rats [3]; ♀, 90 h after withdrawal): 1.04 ± 0.06
Weight after withdrawal compared with weight one day before withdrawal (rats [3]; ♀, 114 h after withdrawal): 1.06 ± 0.06
Weight after withdrawal compared with weight one day before withdrawal (rats [3]; ♀, 162 h after withdrawal): 1.08 ± 0.07
Weight after withdrawal compared with weight one day before withdrawal (rats [3]; ♂, 18 h after withdrawal): 1.01 ± 0.03
Weight after withdrawal compared with weight one day before withdrawal (rats [3]; ♂, 42 h after withdrawal): 1.02 ± 0.03
Weight after withdrawal compared with weight one day before withdrawal (rats [3]; ♂, 66 h after withdrawal): 1.04 ± 0.04
Weight after withdrawal compared with weight one day before withdrawal (rats [3]; ♂, 90 h after withdrawal): 1.06 ± 0.05
Weight after withdrawal compared with weight one day before withdrawal (rats [3]; ♂, 114 h after withdrawal): 1.08 ± 0.05
Weight after withdrawal compared with weight one day before withdrawal (rats [3]; ♂, 138 h after withdrawal): 1.11 ± 0.06
Weight after withdrawal compared with weight one day before withdrawal (rats [3]; ♂, 162 h after withdrawal): 1.12 ± 0.09
Increase (%) of weight (rats [3]; 12 h after withdrawal): 2.9%
Weight (rats [3]; 12 h after withdrawal): 248.1 ± 42 g
Weight (rats [3]; 18 h after withdrawal): 250.5 ± 39 g
Increase (%) of weight (rats [3]; 24 h after withdrawal): 2.2%
Weight (rats [3]; 24 h after withdrawal): 246.3 ± 37 g
Weight (rats [3]; 36 h after withdrawal): 253.9 ± 38 g
Increase (%) of weight (rats [3]; 42 h after withdrawal): 4.3%
Weight (rats [3]; 42 h after withdrawal): 251.3 ± 37 g
Increase (%) of weight (rats [3]; 48 h after withdrawal): 3.3%
Weight (rats [3]; 48 h after withdrawal): 249.1 ± 36 g
Increase (%) of weight (rats [3]; 60 h after withdrawal): 7.2%
Increase (%) of weight (rats [3]; 66 h after withdrawal): 4.8%
Weight (rats [3]; 66 h after withdrawal): 252.8 ± 37 g
Increase (%) of weight (rats [3]; 72 h after withdrawal): 4.4%
Increase (%) of weight (rats [3]; 84 h after withdrawal): 9.4%
Weight (rats [3]; 84 h after withdrawal): 263.7 ± 40 g
Increase (%) of weight (rats [3]; 90 h after withdrawal): 6.8%
Weight (rats [3]; 90 h after withdrawal): 257.4 ± 39 g
Increase (%) of weight (rats [3]; 96 h after withdrawal): 5.4%
Weight (rats [3]; 96 h after withdrawal): 254.2 ± 43 g
Increase (%) of weight (rats [3]; 108 h after withdrawal): 11.4%
Weight (rats [3]; 108 h after withdrawal): 268.6 ± 42 g
Increase (%) of weight (rats [3]; 114 h after withdrawal): 8.5%
Weight (rats [3]; 114 h after withdrawal): 261.6 ± 40 g
Increase (%) of weight (rats [3]; 120 h after withdrawal): 8.0%
Weight (rats [3]; 120 h after withdrawal): 260.3 ± 40 g
Increase (%) of weight (rats [3]; 132 h after withdrawal): 14.4%
Weight (rats [3]; 132 h after withdrawal): 275.8 ± 41 g
Increase (%) of weight (rats [3]; 138 h after withdrawal): 11.3%
Weight (rats [3]; 138 h after withdrawal): 268.3 ± 41 g

From patent publication US7332495B2 (priority 2002, dated 2008)
